Data taken from ChEMBL document CHEMBL2046268 (Eur J Med Chem, 2012).
Calls of active or inactive are those of the source. The rule behind the calls is not given here. *1 amine or outer side, *2 acyl side, *3 side chain or, on linkers, in order; H or OH if unused. Where a SMILES comes first, the peptide text is derived from it. Bridges are numbered along the chain shown (N, C = ends). Roman numbers before positions name the chains, in order. [ ]: non-standard residue; d: D form. Actinocin(1to9) = Cc1c2oc3c(C)ccc(C(=O)[*:2])c3nc-2c(C(=O)[*:1])c(N)c1=O; NMeV = CN[C@H](C(=O)O)C(C)C; Sar = CNCC(=O)O

Columns and labels:
HeLa [1] = experiment: Cytotoxicity against human HeLa cells assessed as cell viability after 48 hrs by MTT assay; type: functional, cell-based
A549 [2] = experiment: Cytotoxicity against human A549 cells assessed as cell viability after 48 hrs by MTT assay; type: functional, cell-based; conditions: A549, 48 h
MCF7 [3] = experiment: Cytotoxicity against human MCF7 cells assessed as cell viability after 48 hrs by MTT assay; type: functional, cell-based; conditions: MCF7, 48 h
Vero [4] = experiment: Selectivity index, ratio of IC50 for african green monkey Vero cells to IC50 for human MCF7 cells after 48 hrs
HeLa [5] = experiment: Induction of apoptosis in human HeLa cells assessed as DNA fragmentation by agarose gel electrophoresis; type: functional, cell-based
HeLa [6] = experiment: Induction of apoptosis in human HeLa cells assessed as phosphatidylserine externalization after 0.5 to 4 hrs using annexin/PI staining by fluorescence microscopy; type: functional, cell-based
HeLa [7] = experiment: Induction of apoptosis in human HeLa cells assessed as necrotic cells after 0.5 to 4 hrs using annexin/PI staining by fluorescence microscopy; type: functional, cell-based
HeLa [8] = experiment: Induction of apoptosis in human HeLa cells assessed as phosphatidylserine externalization at 1 uM using annexin/PI staining by fluorescence microscopy; type: functional, cell-based; conditions: TDE = time-dependent effect
HeLa [9] = experiment: Induction of apoptosis in human HeLa cells assessed as necrotic cells at 1 uM using annexin/PI staining by fluorescence microscopy; type: functional, cell-based; conditions: TDE = time-dependent effect
HeLa [10] = experiment: Induction of apoptosis in human HeLa cells at 12 uM after 2 to 4 hrs using annexin/PI staining by fluorescence microscopy; type: functional, cell-based
HeLa [11] = experiment: Cytotoxicity against human HeLa cells assessed as cell viability after 72 hrs by MTT assay; type: functional, cell-based
A549 [12] = experiment: Cytotoxicity against human A549 cells assessed as cell viability after 72 hrs by MTT assay; type: functional, cell-based; conditions: A549, 72 h
MCF7 [13] = experiment: Cytotoxicity against human MCF7 cells assessed as cell viability after 72 hrs by MTT assay; type: functional, cell-based; conditions: MCF7, 72 h
Vero [14] = experiment: Cytotoxicity against african green monkey Vero cells assessed as cell viability after 48 hrs by MTT assay; type: cell-based; conditions: Chlorocebus sabaeus
Vero [15] = experiment: Cytotoxicity against african green monkey Vero cells assessed as cell viability after 72 hrs by MTT assay; type: cell-based; conditions: Chlorocebus sabaeus
HeLa [16] = experiment: Induction of apoptosis in human HeLa cells assessed as DNA fragmentation at 16 uM after 48 hrs by agarose gel electrophoresis; type: functional, cell-based
HeLa [17] = experiment: Induction of apoptosis in human HeLa cells assessed as DNA fragmentation at 16 to 32 uM after 24 hrs by agarose gel electrophoresis; type: functional, cell-based
HeLa [18] = experiment: Induction of apoptosis in human HeLa cells assessed as DNA fragmentation at 4 to 32 uM after 12 hrs by agarose gel electrophoresis; type: functional, cell-based
HeLa [19] = experiment: Induction of apoptosis in human HeLa cells assessed as chromatin condensation at 8 uM after 12 hrs using Hoechst 33342 staining by fluorescence microscopic analysis; type: functional, cell-based
HeLa [20] = experiment: Induction of apoptosis in human HeLa cells assessed as formation of apoptotic bodies at 8 uM after 12 hrs using Hoechst 33342 staining by fluorescence microscopic analysis; type: functional, cell-based
HeLa [21] = experiment: Induction of apoptosis in human HeLa cells assessed as increase in sub-G1 DNA content at 24 uM after 12 hrs using Propidium iodide staining by flow cytometry; type: functional, cell-based
Caspase-3 (Homo sapiens) [22] = molecular target: T1, Caspase-3 (Homo sapiens) (UniProt P42574); experiment: Induction of caspase 3 activation in human HeLa cells using Ac-DEVD-pNA after 4 hrs by Bradford assay; type: cell-based
T1 sequence (whole entry): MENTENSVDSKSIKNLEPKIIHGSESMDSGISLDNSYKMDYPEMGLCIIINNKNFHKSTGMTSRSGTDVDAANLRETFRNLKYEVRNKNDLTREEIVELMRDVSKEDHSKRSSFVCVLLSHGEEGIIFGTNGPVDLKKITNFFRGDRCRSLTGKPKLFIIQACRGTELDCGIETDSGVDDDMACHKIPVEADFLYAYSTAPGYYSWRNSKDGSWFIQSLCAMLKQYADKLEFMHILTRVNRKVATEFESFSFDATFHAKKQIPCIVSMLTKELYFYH

Caspase-3 (Homo sapiens) [23] = molecular target: T1, Caspase-3 (Homo sapiens); experiment: Induction of caspase 3 activation in human HeLa cells using Ac-DEVD-pNA at 4 uM after 4 hrs by Bradford assay; type: cell-based
Caspase-3 (Homo sapiens) [24] = molecular target: T1, Caspase-3 (Homo sapiens); experiment: Induction of caspase 3 activation in human HeLa cells using Ac-DEVD-pNA at 8 uM after 4 hrs by Bradford assay; type: cell-based
Caspase-3 (Homo sapiens) [25] = molecular target: T1, Caspase-3 (Homo sapiens); experiment: Induction of caspase 3 activation in human HeLa cells using Ac-DEVD-pNA at 24 uM after 8 hrs by Bradford assay; type: cell-based
HeLa [26] = experiment: Induction of apoptosis in human HeLa cells assessed as phosphatidylserine externalization at 2 to 16 uM using annexin/PI staining by fluorescence microscopy; type: functional, cell-based; conditions: TDE = time-dependent effect
HeLa [27] = experiment: Induction of apoptosis in human HeLa cells assessed as necrotic cells at 2 to 16 uM using annexin/PI staining by fluorescence microscopy; type: functional, cell-based; conditions: TDE = time-dependent effect
HeLa [28] = experiment: Induction of apoptosis in human HeLa cells at 8 uM after 2 to 4 hrs using annexin/PI staining by fluorescence microscopy; type: functional, cell-based
HeLa [29] = experiment: Induction of apoptosis in human HeLa cells at 16 uM after 2 to 4 hrs using annexin/PI staining by fluorescence microscopy; type: functional, cell-based
Caspase-3 (Homo sapiens) [30] = molecular target: T1, Caspase-3 (Homo sapiens); experiment: Increase in caspase 3 activation in human HeLa cells using Ac-DEVD-pNA at 12 uM after 4 hrs by Bradford assay relative to control; type: cell-based
HeLa [31] = experiment: Induction of apoptosis in human HeLa cells assessed as early apoptotic cells at 2 to 4 uM up to 4 hrs using annexin/PI staining by fluorescence microscopy; type: functional, cell-based
HeLa [32] = experiment: Increase in apoptosis in human HeLa cells at 8 uM after 12 hrs using Hoechst 33342 staining by fluorescence microscopic analysis relative to control; type: functional
HeLa [33] = experiment: Induction of apoptosis in human HeLa cells assessed as late apoptotic cells at 2 to 4 uM up to 4 hrs using annexin/PI staining by fluorescence microscopy; type: functional, cell-based
Caspase-3 (Homo sapiens) [34] = molecular target: T1, Caspase-3 (Homo sapiens); experiment: Increase in caspase 3 activation in human HeLa cells using Ac-DEVD-pNA at 32 uM after 4 hrs by Bradford assay relative to control; type: cell-based
HeLa [35] = experiment: Induction of apoptosis in human HeLa cells assessed as necrotic cells at 8 uM after 1 to 2 hrs using annexin/PI staining by fluorescence microscopy; type: functional, cell-based
HeLa [36] = experiment: Induction of apoptosis in human HeLa cells assessed as DNA fragmentation at 2 uM after 48 hrs by agarose gel electrophoresis; type: functional, cell-based
Caspase-3 (Homo sapiens) [37] = molecular target: T1, Caspase-3 (Homo sapiens); experiment: Induction of caspase 3 activation in human HeLa cells using Ac-DEVD-pNA at 2 uM after 4 hrs by Bradford assay; type: cell-based

SMILES	IC50 (HeLa [1])	IC50 (A549 [2])	IC50 (MCF7 [3])	Ratio IC50 (Vero [4])	Activity (HeLa [6])	Activity (HeLa [7])	IC50 (HeLa [11])	IC50 (A549 [12])	IC50 (MCF7 [13])	IC50 (Vero [14])	IC50 (Vero [15])	Activity (HeLa [16])	Activity (HeLa [17])	Activity (HeLa [18])	Activity (HeLa [19])	Activity (HeLa [20])	Activity (Caspase-3 (Homo sapiens) [22])	Activity (Caspase-3 (Homo sapiens) [23])	Activity (Caspase-3 (Homo sapiens) [24])	Activity (HeLa [26])	other results
Cc1c2oc3c(C)ccc(C(=O)N[C@@H]4C(=O)N[C@H](C(C)C)C(=O)N5CCC[C@H]5C(=O)N(C)CC(=O)N(C)[C@@H](C(C)C)C(=O)O[C@@H]4C)c3nc-2c(C(=O)N[C@@H]2C(=O)N[C@H](C(C)C)C(=O)N3CCC[C@H]3C(=O)N(C)CC(=O)N(C)[C@@H](C(C)C)C(=O)O[C@@H]2C)c(N)c1=O [DACTINOMYCIN] (I: T[dV]P[Sar][NMeV] / II: T[dV]P[Sar][NMeV]; ester I:1-I:C, II:1-II:C; linker I:N-II:N via Actinocin(1to9))	1.1 nM	7.2 nM	24 nM	3	Dose-dependent effect	Dose-dependent effect															Activity (HeLa [5]): Active; Activity (HeLa [8]): tde; Activity (HeLa [9]): tde
CC1=C(CO[Si](C)(C)C(C)(C)C)C(=O)O[C@@H]([C@@H](C)[C@H]2CC[C@H]3[C@@H]4C[C@H]5O[C@]56C(=O)C=CC(=O)[C@]6(C)[C@H]4CC[C@]23C)C1	1700 nM	5300 nM	500 nM	6.2	Dose-dependent effect	Dose-dependent effect	2100 nM	2900 nM	200 nM	3.1 µM	4000 nM	inactive	inactive	inactive	Active	Active	Dose-dependent effect	inactive	inactive	tde	Activity (HeLa [10]): Active; Activity (HeLa [21]): Active; Activity (Caspase-3 (Homo sapiens) [25]): Active; Activity (HeLa [27]): tde; Activity (HeLa [28]): Active; Activity (HeLa [29]): Active
CC1=C(CO)C(=O)O[C@@H]([C@@H](C)C2=CC[C@H]3[C@@H]4C[C@H]5O[C@]56[C@@H](O)C=CC(=O)[C@]6(C)[C@H]4CC[C@]23C)C1 [WITHARISTATIN]	3500 nM	4200 nM	1200 nM	2.8	Dose-dependent effect	Dose-dependent effect	2700 nM	2300 nM	300 nM	3.4 µM	2600 nM	inactive	inactive	inactive	Active	Active	Dose-dependent effect	inactive	inactive	tde	Activity (HeLa [21]): Active; fold change (FC) (Caspase-3 (Homo sapiens) [30]): 1; Activity (HeLa [27]): tde; Activity (HeLa [31]): Active
CC1=C(C)C(=O)O[C@@H]([C@@H](C)[C@H]2CC=C3[C@@H]4C[C@H]5O[C@]56[C@@H](O)C=CC(=O)[C@]6(C)[C@H]4CC[C@@]32C)C1	3500 nM	2600 nM	1300 nM	1.7	Dose-dependent effect	Dose-dependent effect	2900 nM	2100 nM	300 nM	6.2 µM	1200 nM	inactive	inactive	inactive	Active	Active	Dose-dependent effect	inactive	inactive	tde	Activity (HeLa [32]): 27%; Activity (HeLa [27]): tde; Activity (HeLa [31]): Active; Activity (HeLa [33]): Active
CC1=C(CO[Si](C)(C)C(C)(C)C)C(=O)O[C@@H]([C@@H](C)[C@H]2CC[C@H]3[C@@H]4C[C@H]5O[C@]56[C@@H](O)C=CC(=O)[C@]6(C)[C@H]4CC[C@]23C)C1	900 nM	1500 nM	700 nM	1	Dose-dependent effect	Dose-dependent effect	1000 nM	1500 nM	700 nM	0.7 µM	900 nM	inactive	inactive	inactive	Active	Active	Dose-dependent effect	inactive	inactive	tde	Activity (HeLa [21]): Active; Activity (Caspase-3 (Homo sapiens) [34]): inactive; Activity (HeLa [27]): tde; Activity (HeLa [35]): inactive
CN[C@@H]1C[C@H]2O[C@@](C)([C@@H]1OC)n1c3ccccc3c3c4c(c5c6ccccc6n2c5c31)C(=O)NC4																					Activity (HeLa [36]): Active; Activity (Caspase-3 (Homo sapiens) [37]): Active
